Measurements from PMC6212553, “Baicalein Enhances the Oral Bioavailability and Hepatoprotective Effects of Silybin Through the Inhibition of Efflux Transporters BCRP and MRP2” (Frontiers in Pharmacology, 2018).
Values belong to the molecule of their own block, whether it stands above or below them.

Assays:
MRP2 = target: T1, MRP2 (Homo sapiens, UniProt Q92887); assay: Bidirectional transport of CDCFDA in MDCKII-MRP2 cells; type: cell-based
T1 construct: host or cells: MDCK II (canine kidney) cells transfected with MRP2
T1 sequence (Q92887 whole entry): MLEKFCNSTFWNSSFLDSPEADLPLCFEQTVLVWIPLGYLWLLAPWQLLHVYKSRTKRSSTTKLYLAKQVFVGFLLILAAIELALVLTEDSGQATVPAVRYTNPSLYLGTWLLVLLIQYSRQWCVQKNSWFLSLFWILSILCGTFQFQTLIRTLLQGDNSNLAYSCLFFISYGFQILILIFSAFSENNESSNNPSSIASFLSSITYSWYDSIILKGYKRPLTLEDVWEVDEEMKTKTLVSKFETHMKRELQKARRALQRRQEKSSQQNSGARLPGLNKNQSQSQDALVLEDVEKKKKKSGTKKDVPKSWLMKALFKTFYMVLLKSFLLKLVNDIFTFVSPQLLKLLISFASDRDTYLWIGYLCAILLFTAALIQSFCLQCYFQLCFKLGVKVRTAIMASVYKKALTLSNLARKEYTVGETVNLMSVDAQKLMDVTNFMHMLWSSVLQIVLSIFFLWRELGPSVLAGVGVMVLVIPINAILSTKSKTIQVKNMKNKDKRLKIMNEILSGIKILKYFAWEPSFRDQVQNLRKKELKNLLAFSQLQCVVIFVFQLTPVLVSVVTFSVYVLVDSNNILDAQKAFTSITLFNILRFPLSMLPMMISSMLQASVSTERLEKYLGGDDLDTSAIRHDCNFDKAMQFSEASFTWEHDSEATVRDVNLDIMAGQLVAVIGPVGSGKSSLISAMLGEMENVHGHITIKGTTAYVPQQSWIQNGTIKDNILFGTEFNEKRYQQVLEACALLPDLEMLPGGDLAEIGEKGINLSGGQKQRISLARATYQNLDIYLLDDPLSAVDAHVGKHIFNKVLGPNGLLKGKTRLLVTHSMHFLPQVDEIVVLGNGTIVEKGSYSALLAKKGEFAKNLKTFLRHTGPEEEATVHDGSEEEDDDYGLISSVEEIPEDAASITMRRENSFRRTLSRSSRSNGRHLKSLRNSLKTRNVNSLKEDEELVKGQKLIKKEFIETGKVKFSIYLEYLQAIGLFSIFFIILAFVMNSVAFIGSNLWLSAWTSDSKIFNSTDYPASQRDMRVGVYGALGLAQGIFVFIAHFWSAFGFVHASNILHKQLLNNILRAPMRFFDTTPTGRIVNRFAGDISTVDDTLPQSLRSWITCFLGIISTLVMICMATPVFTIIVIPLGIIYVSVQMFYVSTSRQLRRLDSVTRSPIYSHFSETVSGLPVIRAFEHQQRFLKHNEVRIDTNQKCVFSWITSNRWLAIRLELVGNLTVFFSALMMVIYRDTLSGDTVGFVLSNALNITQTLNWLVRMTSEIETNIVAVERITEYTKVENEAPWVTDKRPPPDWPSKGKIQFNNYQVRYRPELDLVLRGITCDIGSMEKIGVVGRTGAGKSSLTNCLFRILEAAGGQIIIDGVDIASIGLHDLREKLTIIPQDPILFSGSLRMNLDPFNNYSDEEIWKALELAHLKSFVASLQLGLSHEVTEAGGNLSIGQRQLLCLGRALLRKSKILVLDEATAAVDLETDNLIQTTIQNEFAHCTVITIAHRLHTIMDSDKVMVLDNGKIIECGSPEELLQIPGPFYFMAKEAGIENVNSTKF
Protocol: Human colon epithelial cell line (Caco-2) was purchased from American Type Culture Collection (Manassas, VA, United States) and frozen at -80°C. Wild type MDCK II, MDR1-MDCK II, BCRP-MDCK II, and MRP2-MDCK II cells were kindly supplied by the Netherlands Cancer Institute (Amsterdam, Netherlands). Transport study was carried out with Caco-2 cells, and MDCK II cells were transfected using a previously established method with slight modifications ([Yuan et al., 2017]). The Caco-2 cells were cultured at 37°C/5% CO2 in Dulbecco’s modified Eagle’s medium (DMEM) supplemented with 10% fetal bovine serum, 1% nonessential amino acids, and 1% penicillin-streptomycin. […]
Bidirectional transport assays for Caco-2 and MDCK II cells were performed by adding silybin (10 μM) in assay buffer into either the apical (AP; A-to-B) or basolateral (BL; B-to-A) chamber, and each 100 μl sample was collected at 30, 60, 90, 120, and 180 min. […] The fluorescence intensity of the sample collected from the AP or BL side was immediately detected in a 96-well black plate by the Microplate UV/VIS spectrophotometer (TECAN Infinite M200 PRO, Männedorf, Switzerland). […]
(§1) where dQ/dt (mM/s) represents the rate of permeation of the drug across the cells, C0 (mM) refers to the concentration in the donor compartment at time zero calculated from dosing solution, and A (cm^2) refers to the area of the cell monolayer. […]

[1] = test system: sandwich-cultured rat hepatocytes; assay: Biliary excretion in sandwich-cultured rat hepatocytes (SCH); type: in vitro ADME
Protocol: Sandwich-cultured rat hepatocytes (SCHs) model was established based on a previously described method with minor modifications ([Swift et al., 2010]). In brief, primary rat hepatocytes were prepared from male Sprague Dawley (SD) rats (220–270 g) using collagenase perfusion as described previously ([Liu et al., 1999]) and then were plated on 6-well plates at a density of 7.4 × 10^5 cells/2 ml/well. Approximately 24 h later, hepatocytes were overlaid with 2 ml of BD Matrigel basement membrane matrix in DMEM (0.25 mg/ml) containing 1% (v/v) insulin/transferrin/selenium culture supplement, […], 2 mM L-glutamine, and 1% penicillin-streptomycin. Hepatocytes were cultured for 4 days with daily medium replacements until the canalicular network was extensively formatted between the cells before the experiment. Evaluation of biliary excretion in SCHs was carried out according to a previously described method ([Liu et al., 1999]). […] Samples were quantified by LC-MS/MS analysis, and the transport function was normalized to the protein content of the hepatocytes. […] Later, the residues were reconstituted with 60 μl of 30% methanol in water containing 1% ascorbic acid, and an aliquot of 10 μl of final solution after centrifugation was analyzed by LC-MS/MS. […] The quantitative linear range for silybin A and B was 5 to 12500 ng/ml.

MDR1 = target: T2, MDR1 (Homo sapiens, UniProt P08183); assay: Bidirectional transport of Rho123 in MDCKII-MDR1 cells; type: cell-based; conditions: dog, MDCK-MDR1, absence of inhibitor
T2 construct: host or cells: MDCK II (canine kidney) cells transfected with MDR1
T2 sequence (P08183 whole entry): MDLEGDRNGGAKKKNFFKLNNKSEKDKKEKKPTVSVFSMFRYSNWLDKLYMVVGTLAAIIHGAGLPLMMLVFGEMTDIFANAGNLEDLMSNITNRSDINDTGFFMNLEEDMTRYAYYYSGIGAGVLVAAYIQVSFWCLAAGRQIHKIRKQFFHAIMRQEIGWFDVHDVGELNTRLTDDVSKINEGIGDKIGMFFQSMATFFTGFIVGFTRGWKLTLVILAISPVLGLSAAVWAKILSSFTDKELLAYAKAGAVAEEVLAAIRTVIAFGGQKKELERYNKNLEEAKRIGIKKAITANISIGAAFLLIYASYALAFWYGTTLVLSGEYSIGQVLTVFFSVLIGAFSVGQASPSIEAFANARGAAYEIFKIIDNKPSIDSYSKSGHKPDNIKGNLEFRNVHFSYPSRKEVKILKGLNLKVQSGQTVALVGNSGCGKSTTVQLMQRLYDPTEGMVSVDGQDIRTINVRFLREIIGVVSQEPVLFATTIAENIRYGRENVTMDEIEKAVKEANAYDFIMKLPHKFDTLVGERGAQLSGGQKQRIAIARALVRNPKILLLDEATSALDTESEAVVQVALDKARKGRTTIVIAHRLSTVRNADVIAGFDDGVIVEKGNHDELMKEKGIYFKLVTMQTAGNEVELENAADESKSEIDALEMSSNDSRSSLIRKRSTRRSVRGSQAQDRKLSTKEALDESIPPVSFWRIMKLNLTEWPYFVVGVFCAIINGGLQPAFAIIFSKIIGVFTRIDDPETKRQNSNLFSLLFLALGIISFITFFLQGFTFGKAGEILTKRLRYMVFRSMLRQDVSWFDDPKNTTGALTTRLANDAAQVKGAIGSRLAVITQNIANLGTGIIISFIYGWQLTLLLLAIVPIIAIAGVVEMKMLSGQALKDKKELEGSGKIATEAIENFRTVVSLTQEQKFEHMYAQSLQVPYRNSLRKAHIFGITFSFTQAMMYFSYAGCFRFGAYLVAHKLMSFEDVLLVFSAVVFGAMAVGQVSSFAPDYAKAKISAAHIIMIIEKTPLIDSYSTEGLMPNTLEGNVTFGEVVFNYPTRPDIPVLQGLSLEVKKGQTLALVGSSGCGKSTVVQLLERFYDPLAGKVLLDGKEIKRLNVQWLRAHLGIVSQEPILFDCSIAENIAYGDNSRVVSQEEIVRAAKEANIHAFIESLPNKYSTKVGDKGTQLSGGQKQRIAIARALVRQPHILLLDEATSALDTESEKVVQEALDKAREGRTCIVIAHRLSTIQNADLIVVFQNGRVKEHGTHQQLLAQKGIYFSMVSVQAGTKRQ
Protocol: (§2) Human colon epithelial cell line (Caco-2) was purchased from American Type Culture Collection (Manassas, VA, United States) and frozen at -80°C. Wild type MDCK II, MDR1-MDCK II, BCRP-MDCK II, and MRP2-MDCK II cells were kindly supplied by the Netherlands Cancer Institute (Amsterdam, Netherlands). […] The Caco-2 cells were cultured at 37°C/5% CO2 in Dulbecco’s modified Eagle’s medium (DMEM) supplemented with 10% fetal bovine serum, 1% nonessential amino acids, and 1% penicillin-streptomycin. The Caco-2 cells were seeded onto polyester filter membranes in a 12-well Transwell® plate (Corning Costar Co., NY, United States) with 0.6 × 10^5 cells/cm^2. […]
(§3) For inhibition studies, Caco-2 or MDCK II cell monolayers in both apical and basolateral chambers were preincubated with the inhibitor for 30 min. The fluorescence intensity of the sample collected from the AP or BL side was immediately detected in a 96-well black plate by the Microplate UV/VIS spectrophotometer (TECAN Infinite M200 PRO, Männedorf, Switzerland). […]
as §1, with “monolayer. Papp (B-A) is the Papp value measured in the B to A direction, and Papp (A-B) is the Papp value measured in the A to B direction.” for “monolayer.”

[2] = test system: CCl4-induced liver injury model; assay: CCl4-induced acute liver injury in rats; type: in vivo, SD rats; set-up: Nerosis (histologic score, liver H&E) / Haemorrhage (histologic score, liver H&E) / Inflammation (histologic score, liver H&E) / Steatosis (histologic score, liver H&E): scale not given here
Protocol: Male SD rats were randomly divided into seven groups: […] (2) Group II, given blank vehicle p.o. for 7 days; (3) Group III, treatment with silybin (100 mg/kg bodyweight, p.o.) for 7 days; […] After 24 h of CCl4 treatment, all rats were sacrificed under ether anesthesia. Blood samples were collected from the abdominal aorta for biochemical estimations. The liver was immediately removed and weighed with a large portion of the liver frozen in liquid nitrogen. The pathological liver changes were examined by hematoxylin and eosin (H&E) staining, which was performed by a pathologist who was blinded to this study. The serum levels of ALT, AST, AKP, and SOD as well as the cytokines TNF- α, IL-6, and IL-1β were detected by the assay kit, according to the manufacturer’s instructions.

Caco-2 cells = assay: Bidirectional transport of silybin across Caco-2 cell monolayers; type: in vitro ADME, Human; conditions: Caco-2 monolayers, silybin 10 μM
Protocol: Human colon epithelial cell line (Caco-2) was purchased from American Type Culture Collection (Manassas, VA, United States) and frozen at -80°C. Wild type MDCK II, MDR1-MDCK II, BCRP-MDCK II, and MRP2-MDCK II cells were kindly supplied by the Netherlands Cancer Institute (Amsterdam, Netherlands). Transport study was carried out with Caco-2 cells, and MDCK II cells were transfected using a previously established method with slight modifications ([Yuan et al., 2017]). The Caco-2 cells were cultured at 37°C/5% CO2 in Dulbecco's modified Eagle's medium (DMEM) supplemented with 10% fetal bovine serum, 1% nonessential amino acids, and 1% penicillin-streptomycin. The Caco-2 cells were seeded onto polyester filter membranes in a 12-well Transwell® plate (Corning Costar Co., NY, United States) with 0.6 × 10^5 cells/cm^2. The monolayer cells were used for transport assays between 21 and 23 days. The MDCKII cells were seeded on transwell plates with a density of 2.0 × 10^5 cells/cm^2 and grown for 4-5 days to form a confluent monolayer. Bidirectional transport assays for Caco-2 and MDCK II cells were performed by adding silybin (10 μM) in assay buffer into either the apical (AP; A-to-B) or basolateral (BL; […] For inhibition studies, Caco-2 or MDCK II cell monolayers in both apical and basolateral chambers were preincubated with the inhibitor for 30 min. The fluorescence intensity of the sample collected from the AP or BL side was immediately detected in a 96-well black plate by the Microplate UV/VIS spectrophotometer (TECAN Infinite […], Männedorf, Switzerland). For liquid chromatography tandem-mass spectrometry (LC-MS/MS) analysis, the sample (100 μl) was mixed with methanol (50 μl) containing internal standard (25 ng/ml) and was stored at -80°C. The formula for calculating apparent permeability coefficient (Papp) values is as follows: (1) […] where dQ/dt (mM/s) represents the rate of permeation of the drug across the cells, C0 (mM) refers to the concentration in the donor compartment at time zero calculated from dosing solution, and A (cm^2) refers to the area of the cell monolayer. Papp (B-A) is the Papp value measured in the B to A direction, and Papp (A-B) is the Papp value measured in the A to B direction. The efflux ratio is given as ER = Papp (B to A)/Papp (A to B).

[3] = ref Lai et al., 2003, cited from earlier work
BCRP = target: T3, BCRP (Homo sapiens, UniProt Q9UNQ0); assay: Bidirectional transport of pheophorbide A in MDCKII-BCRP cells; type: cell-based; conditions: dog, absence of inhibitor
T3 construct: host or cells: MDCK II (canine kidney) cells transfected with BCRP
T3 sequence (Q9UNQ0 1-655): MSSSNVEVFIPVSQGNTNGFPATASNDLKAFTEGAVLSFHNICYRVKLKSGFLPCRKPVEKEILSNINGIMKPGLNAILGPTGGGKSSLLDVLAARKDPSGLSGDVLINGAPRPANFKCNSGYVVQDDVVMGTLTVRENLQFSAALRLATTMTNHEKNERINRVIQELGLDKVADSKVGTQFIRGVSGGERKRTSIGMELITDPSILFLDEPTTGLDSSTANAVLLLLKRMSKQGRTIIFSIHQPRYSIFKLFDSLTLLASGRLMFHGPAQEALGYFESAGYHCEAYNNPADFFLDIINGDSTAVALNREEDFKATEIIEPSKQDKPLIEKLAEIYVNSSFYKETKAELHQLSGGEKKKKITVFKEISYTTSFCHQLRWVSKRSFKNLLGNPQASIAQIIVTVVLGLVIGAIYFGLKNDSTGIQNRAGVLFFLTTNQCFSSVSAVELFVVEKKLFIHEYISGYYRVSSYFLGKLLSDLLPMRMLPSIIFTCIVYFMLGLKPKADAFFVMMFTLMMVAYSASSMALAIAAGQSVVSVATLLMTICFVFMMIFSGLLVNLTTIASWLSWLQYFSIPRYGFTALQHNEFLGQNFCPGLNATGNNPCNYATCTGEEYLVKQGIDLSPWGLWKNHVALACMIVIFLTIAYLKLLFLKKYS
Protocol: as §2, §3
as §1, with “monolayer. Papp (B-A) is the Papp value measured in the B to A direction, and Papp (A-B) is the Papp value measured in the A to B direction.” for “monolayer.”

[4] = 100 mg/kg p.o. 7 days, single agent, CCl4 on day 7

efflux ratio of CDCFDA (MRP2): 3.82 ± 0.51
Molecule: 5(6)-Carboxy-2′,7′-dichlorofluorescein diacetate [CDCFDA]

Molecule: CN(C)C(=O)CCSC(SCCC(=O)O)c1cccc(/C=C/c2ccc3ccc(Cl)cc3n2)c1 (centres unmarked) [MK571]
effect on biliary excretion of silybin and its conjugates ([1]; MK571 50 μM, positive control): significantly inhibited

efflux ratio at 180 min (MDR1): 3.68 ± 0.44
Molecule: COC(=O)c1ccccc1-c1c2ccc(=N)cc-2oc2cc(N)ccc12 [Rho123, Rhodamine 123]

Molecule: O=c1cc(-c2ccccc2)oc2cc(O)c(O)c(O)c12 [baicalein, 5,6,7-trihydroxyflavone]
Haemorrhage (histologic score, liver H&E) [2, 4]: 2.2±0.4
Inflammation (histologic score, liver H&E) [2, 4]: 2.2±0.8
Nerosis (histologic score, liver H&E) [2, 4]: 3.0±0.6
Steatosis (histologic score, liver H&E) [2, 4]: 2.3±0.8
protection of liver injury by baicalein itself ([2]; CCl4-induced acute liver injury model): failed to show significant benefits
reduction of the biliary excretion of silybin conjugates ([1]; baicalein 25 μM): ~90%
lowest effective dosage inhibiting efflux transport of silybin (Caco-2 cells): 0.5 µM
glucuronides/sulfates of baicalein in the plasma or cell ([3]; after oral administration or dosing in the Caco-2 cell model, Li et al., 2012): 75.7%
absolute absorption ([3]; passive diffusion): 40%

Molecule: O=C(O)[C@H]1O[C@@H](Oc2cc3oc(-c4ccccc4)cc(=O)c3c(O)c2O)[C@H](O)[C@@H](O)[C@@H]1O [baicalin]
relative absorption compared with baicalein ([3]; after oral administration): 65%

efflux ratio at 180 min (BCRP): 2.82 ± 0.13
Molecule: C=Cc1c(C)c2cc3nc(c4c5[nH]c(cc6nc(cc1[nH]2)C(C)=C6CC)c(C)c5C(=O)[C@@H]4C(=O)OC)[C@@H](CCC(=O)O)[C@@H]3C [pheophorbide A]
